In general, IC50 refers to the concentration at which inhibition is half-maximal. High values mean weaker potency in that assay, low ones greater potency in that assay.

The results in this text go back to ChEMBL document CHEMBL1145569, “Design, synthesis, and evaluation of inhibitors of cathepsin L: Exploiting a unique thiocarbazate chemotype” (Bioorg Med Chem Lett, 2008).

The test concerns the target Procathepsin L (Homo sapiens, UniProt P07711). The test can be described thus: Inhibition of human cathepsin L.

Calls of active or inactive are those of the source. The calls are words filed in the database; no cut-off is given here.

With `CC(C)(C)OC(=O)N[C@@H](Cc1c[nH]c2ccccc12)C(=O)NNC(=O)SC1CCN(c2ccccc2)C1=O` (some centres undefined), the IC50 turned out to be 110 nM.

`CC(C)(C)OC(=O)N[C@@H](Cc1c[nH]c2ccccc12)C(=O)NNC(=O)CCC(=O)N1CCCc2ccccc21`: the result was inactive.

As for `CCc1ccccc1NC(=O)CSC(=O)NNC(=O)[C@H](Cc1ccccc1)NC(=O)OC(C)(C)C`, the IC50 was determined as 115 nM.

Turning to `CCc1ccccc1NC(=O)CSC(=O)NNC(=O)CCc1c[nH]c2ccccc12`, the IC50 is 21800 nM.

The compound `CC(C)(C)OC(=O)N[C@@H](Cc1c[nH]c2ccccc12)C(=O)NNC(=O)SCC(=O)N1CCCc2ccccc21` gave an IC50 of 41 nM.

Compound `CC(C)(C)OC(=O)N[C@@H](Cc1c[nH]c2ccccc12)C(=O)NNC(=O)OCC(=O)N1CCCc2ccccc21` had an IC50 of 7 nM.

Consider `CCc1ccccc1NC(=O)CSC(=O)NNC(=O)CNC(=O)OC(C)(C)C`, for which the outcome was inactive.

Regarding `CC(C)(C)OC(=O)N[C@@H](Cc1c[nH]c2ccccc12)C(=O)NNC(=O)NCC(=O)N1CCCc2ccccc21`, half-maximal inhibition (IC50) required 3000 nM.

`COC(=O)CSC(=O)NNC(=O)[C@H](Cc1c[nH]c2ccccc12)NC(=O)OC(C)(C)C` showed an IC50 of 201 nM.
